Data reported in PubChem BioAssay AID1963863 (Molecular Pharmacology Branch, DTP, NCI, 2024).

Tested on: 931267-113-T-J1-PDC KRAS spheroid with HUVEC/MSC, viability
Test: Anticancer human tumor 931267-113-T-J1-PDC patient-derived colon adenocarcinoma cell line growth inhibition [KRAS2]
Conditions: for IC50: curve of first compound; for viability, T/C: stronger effect = lower value
Description: Multicellular complex tumor spheroid response to RAS pathway inhibitors in combination with a targeted agents in patient-derived cell lines with oncogenic KRAS variants from multiple cancer types
A high-throughput screen of multi-cell type tumor spheroids was designed to identify active combinations of targeted small molecules and KRAS pathway inhibitors. Complex spheroids include a stromal component modeled by human endothelial cells (HUVEC) and fibroblasts modeled by human mesenchymal stem cells (MSCs). The concentration ranges selected for each drug and investigational agent were based upon clinically achievable concentrations if the clinical Cmax of the agent was known.
Compounds. The drugs and investigational agents: BI-3406 (NSC825286), BAY-293 (NSC824723), batoprotafib (TNO155; NSC825523), sotorasib (AMG 510; NSC818433), MRTX1257 (NSC819558), elimusertib (BAY 1895344; NSC800525), molibresib (GSK525762; NSC774829), temuterkib (LY3214996; NSC803410), venetoclax (NSC766270), alisertib (NSC759677), olaparib (NSC753686), talazoparib (NSC767125), erdafitinib (NSC781556), ipatasertib (NSC767898), cabozantinib (NSC761068), nintedanib (NSC756659), abemaciclib (NSC768073), docetaxel (NSC628503), trametinib (NSC758246), and sapanisertib (NSC764658) were obtained from the National Cancer Institute (NCI) Developmental Therapeutics Program Chemical Repository. The FDA-approved anticancer drug set is available from the Developmental Therapeutics Program. […] The stock solutions were prepared in dimethyl sulfoxide (DMSO, Sigma-Aldrich, St. Louis, MO, cat. D2650) at 800-fold the tested concentration and stored at -70 degrees C prior to their use. All drugs and investigational agents were tested over a range starting from a high concentration at or near the clinical Cmax and decreasing in half-log increments. If the clinical Cmax for an agent had not been determined, the highest concentration tested was 10 microM.
Cell Culture. All cells were maintained in an incubator at 37 degrees C and 5% CO2 with 95% humidity. The PDC lines were cultured according to standard operating procedures established by the NCI PDMR (https://pdmr.cancer.gov/sops/default.htm). Briefly, all PDCs were thawed and cultured in Matrigel-coated flasks prepared with a working solution of 1X Ham's F-12 nutrient mix, without supplementation (Invitrogen, Waltham, MA, cat. 11765054), 100 U/mL penicillin-streptomycin (Invitrogen, cat. 15140122), and 2.5% Matrigel (Corning Inc., Corning, NY, cat. 354248) for the first three passages. All PDCs were cultured in complete DMEM/F-12 media containing advanced DMEM/F-12 (Invitrogen, cat. 12634028), 4.9% defined fetal bovine serum, heat inactivated (HyClone Laboratories Inc., Logan, UT, cat. SH30070.03HI), 389 ng/mL hydrocortisone (Sigma-Aldrich, cat. H4001), 9.7 ng/mL human EGF recombinant protein (Invitrogen, cat. PHG0313), 23.4 microg/mL adenine (Sigma-Aldrich, cat. A2786), 97.3 U/mL penicillin-streptomycin (Invitrogen, cat. 15140122), 1.9 mM L-glutamine (Invitrogen, cat. 25030081), and 9.7 microM Y-27632 dihydrochloride (Tocris Bioscience, Bristol, United Kingdom, cat. 1254). The PDCs were cultured in complete DMEM/F12 media without 9.7 microM Y-27632 dihydrochloride for at least two passages prior to the screen. The established cell line HOP-62 was cultured in RPMI 1640 medium, HEPES (Invitrogen, cat. 22400105) with 10% defined fetal bovine serum (HyClone Laboratories Inc., cat. SH30070.03) and 2 mM L-glutamine (Invitrogen, cat. 25030081). The pooled donor HUVEC were cultured in endothelial cell growth medium 2 (PromoCell, Heidelberg, Germany, cat. C-22011) and the hMSC were cultured in mesenchymal stem cell growth medium 2 (PromoCell, cat. C-28009). For all experiments, HUVEC and hMSC were used at passages </=5, while the malignant cell lines were used at passages </=15. […]
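Also: compound exposure lasted 7 days before the readout.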
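For viability, T/C in this document: 100% = DMSO vehicle control viability.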

Question: What does the source list for CC(=O)Nc1cccc(-n2c(=O)n(C3CC3)c(=O)c3c(Nc4ccc(I)cc4F)n(C)c(=O)c(C)c32)c1 + CC1OCC2(CCN(c3cnc(Sc4ccnc(N)c4Cl)c(N)n3)CC2)C1N?
Answer: IC50 (second compound 0.1 µM): 8.08 nM; IC50 (second compound 0.316 µM): 9.27 nM; IC50 (second compound 1 µM): 3.37 nM; IC50 (second compound 3.16 µM): 0.951 nM; IC50 (second compound 10 µM): 0.274 nM; viability, T/C (second compound 0.1 µM, first compound 0.0001 µM): 92%; viability, T/C (second compound 0.1 µM, first compound 0.000316 µM): 81.6%; viability, T/C (second compound 0.1 µM, first compound 0.001 µM): 68.2%; viability, T/C (second compound 0.1 µM, first compound 0.00316 µM): 56.1%; viability, T/C (second compound 0.1 µM, first compound 0.01 µM): 62.2%; viability, T/C (second compound 0.1 µM, first compound 0.0316 µM): 20.1%; viability, T/C (second compound 0.316 µM, first compound 0.0001 µM): 60.2%; viability, T/C (second compound 0.316 µM, first compound 0.000316 µM): 54.3%; viability, T/C (second compound 0.316 µM, first compound 0.001 µM): 71.8%; viability, T/C (second compound 0.316 µM, first compound 0.00316 µM): 48.9%; viability, T/C (second compound 0.316 µM, first compound 0.01 µM): 51.7%; viability, T/C (second compound 0.316 µM, first compound 0.0316 µM): 7.58%; viability, T/C (second compound 1 µM, first compound 0.0001 µM): 67.7%; viability, T/C (second compound 1 µM, first compound 0.000316 µM): 69.5%; viability, T/C (second compound 1 µM, first compound 0.001 µM): 53.9%; viability, T/C (second compound 1 µM, first compound 0.00316 µM): 50.8%; viability, T/C (second compound 1 µM, first compound 0.01 µM): 37.7%; viability, T/C (second compound 1 µM, first compound 0.0316 µM): 6.56%; viability, T/C (second compound 3.16 µM, first compound 0.0001 µM): 59.7%; viability, T/C (second compound 3.16 µM, first compound 0.000316 µM): 61.5%; viability, T/C (second compound 3.16 µM, first compound 0.001 µM): 46.9%; viability, T/C (second compound 3.16 µM, first compound 0.00316 µM): 38.7%; viability, T/C (second compound 3.16 µM, first compound 0.01 µM): 26.9%; viability, T/C (second compound 3.16 µM, first compound 0.0316 µM): 7.86%; viability, T/C (second compound 10 µM, first compound 0.0001 µM): 60.8%; viability, T/C (second compound 10 µM, first compound 0.000316 µM): 47.9%; viability, T/C (second compound 10 µM, first compound 0.001 µM): 31.8%; viability, T/C (second compound 10 µM, first compound 0.00316 µM): 35%; viability, T/C (second compound 10 µM, first compound 0.01 µM): 12.3%; viability, T/C (second compound 10 µM, first compound 0.0316 µM): 2.06%
